For 29 compounds, IC50 results are on record in patent US8273890B2 (4SC AG, priority 2007, dated 2012).

Molecules are shown by their SMILES.

T1 sequence (P53350 whole entry): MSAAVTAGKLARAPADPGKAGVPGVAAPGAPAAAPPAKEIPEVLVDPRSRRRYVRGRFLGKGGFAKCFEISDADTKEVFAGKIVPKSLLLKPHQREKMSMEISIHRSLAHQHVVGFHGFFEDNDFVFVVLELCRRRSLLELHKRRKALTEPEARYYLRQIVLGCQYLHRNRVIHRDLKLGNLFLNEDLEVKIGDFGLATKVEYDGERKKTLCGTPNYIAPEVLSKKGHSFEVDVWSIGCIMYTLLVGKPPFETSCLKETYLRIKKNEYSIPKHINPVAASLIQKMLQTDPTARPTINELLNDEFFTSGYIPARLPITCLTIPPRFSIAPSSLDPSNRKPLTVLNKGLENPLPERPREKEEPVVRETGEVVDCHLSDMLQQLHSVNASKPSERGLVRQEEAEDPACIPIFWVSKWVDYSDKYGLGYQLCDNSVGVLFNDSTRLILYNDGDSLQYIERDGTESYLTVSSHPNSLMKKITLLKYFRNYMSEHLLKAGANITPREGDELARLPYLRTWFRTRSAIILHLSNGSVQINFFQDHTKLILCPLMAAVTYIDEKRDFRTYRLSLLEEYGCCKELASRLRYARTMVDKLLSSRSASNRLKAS

The assay addresses T1, recombinant Plk1 protein (Homo sapiens, UniProt P53350).
T1 construct: histidine tag (N); made in house; host or cells: SF9 insect cells
Nature of the assay: Plk1 kinase activity inhibition assay (33P-ATP, alpha casein substrate, flash plates). Format: biochemical. Conditions: enzymatic assay, 100 nM Li-ATP, 80 minutes at 30° C. The gist of the method:
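IC50 derived from radioactive flash-plate counts of 33P-labelled alpha casein after 80 min at 30 °C. Reaction: 100 nM 33P-containing ATP, 50–100 ng His-tagged Plk1 (SF9-expressed), 500 ng casein per well, HEPES pH 7.5 buffer with MgCl2/MnCl2.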
As for `C[C@@H](Oc1cc(-n2cnc3cnc(CN4CCC(C(=O)N5CCN(C)CC5)CC4)cc32)sc1C(N)=O)c1ccccc1C(F)(F)F` [Example 91, 5-[6-({4-[(4-methylpiperazin-1-yl)carbonyl]piperidin-1-yl}methyl)-1H-imidazo[4,5-c]pyridin-1-yl]-3-{(1R)-1-[2-(trifluoromethyl)phenyl]ethoxy}thiophene-2-carboxamide], the IC50 is 10 to 100 nM.

For the compound `CCCNCc1cc2c(cn1)ncn2-c1cc(O[C@H](C)c2ccccc2C(F)(F)F)c(C(N)=O)s1` [Example 113], the IC50 lay within 10 to 100 nM.

`CCN1CCN(Cc2cc3c(cn2)ncn3-c2cc(OC(C)c3ccccc3F)c(C(N)=O)s2)CC1` (centres unmarked) [Example 152, 5-{6-[(4-ethylpiperazin-1-yl)methyl]-1H-imidazo[4,5-c]pyridin-1-yl}-3-[1-(2-fluorophenyl)ethoxy]thiophene-2-carboxamide]: the IC50 fell in the range of 10 to 100 nM.

As to `C[C@@H](Oc1cc(-n2cnc3cnc(CN4CCC(N(C)C)C4)cc32)sc1C(N)=O)c1ccccc1C(F)(F)F` (stereo partly drawn) [Example 144, 5-(6-{[3-(dimethylamino)pyrrolidin-1-yl]methyl}-1H-imidazo[4,5-c]pyridin-1-yl)-3-{(1R)-1-[2-(trifluoromethyl)phenyl]ethoxy}thiophene-2-carboxamide], the IC50 is under 10 nM.

On to `C[C@@H](Oc1cc(-n2cnc3cnc(CN4CCN(C)CC4)cc32)sc1C(N)=O)c1ccccc1C(F)(F)F` [Example 24, 5-{6-[(4-methylpiperazin-1-yl)methyl]-1H-imidazo[4,5-c]pyridin-1-yl}-3-{(1R)-1-[2-(trifluoromethyl)phenyl]ethoxy}thiophene-2-carboxamide], for which the IC50 was under 10 nM.

Turning to `C[C@@H](Oc1cc(-n2cnc3cnc(CO)cc32)sc1C(N)=O)c1ccccc1Cl` [Example 54, 3-[(1R)-1-(2-chlorophenyl)ethoxy]-5-[6-(hydroxymethyl)-1H-imidazo[4,5-c]pyridin-1-yl]thiophene-2-carboxamide], the 50% inhibitory concentration (IC50) was under 10 nM.

As for `C[C@@H](Oc1cc(-n2cnc3cnc(CN4CCN(C(=O)N(C)C)CC4)cc32)sc1C(N)=O)c1ccccc1Br` [Example 133], the IC50 was under 10 nM.

Take `C[C@@H](Oc1cc(-n2cnc3cnc(CN4CCN(C)C(=O)C4)cc32)sc1C(N)=O)c1ccccc1C(F)(F)F` [Example 72, 5-{6-[(4-methyl-3-oxopiperazin-1-yl)methyl]-1H-imidazo[4,5-c]pyridin-1-yl}-3-{(1R)-1-[2-(trifluoromethyl)phenyl]ethoxy}thiophene-2-carboxamide]: the IC50 is under 10 nM.

In the case of `C[C@@H](Oc1cc(-n2cnc3cnc(CNCCO)cc32)sc1C(N)=O)c1ccccc1C(F)(F)F` [Example 104, 5-(6-{[(2-hydroxyethyl)amino]methyl}-1H-imidazo[4,5-c]pyridin-1-yl)-3-{(1R)-1-[2-(trifluoromethyl)phenyl]ethoxy}thiophene-2-carboxamide], the IC50 was in the range of 10 to 100 nM.

`CC(C)CN1CCN(Cc2cc3c(cn2)ncn3-c2cc(O[C@H](C)c3ccccc3C(F)(F)F)c(C(N)=O)s2)CC1` [Example 120, 5-{6-[(4-isobutylpiperazin-1-yl)methyl]-1H-imidazo[4,5-c]pyridin-1-yl}-3-{(1R)-1-[2-(trifluoromethyl)phenyl]ethoxy}thiophene-2-carboxamide]: the IC50 is under 10 nM.

As for `CN1CCN(Cc2cc3c(cn2)ncn3-c2cc(OC(c3ccccc3Cl)C(F)(F)F)c(C(N)=O)s2)CC1` (centres unmarked) [Example 76, 3-[1-(2-chlorophenyl)-2,2,2-trifluoroethoxy]-5-{6-[(4-methylpiperazin-1-yl)methyl]-1H-imidazo[4,5-c]pyridin-1-yl}thiophene-2-carboxamide], the IC50 was under 10 nM.

Turning to `C[C@@H](Oc1cc(-n2cnc3cnc(CN4CCS(=O)(=O)CC4)cc32)sc1C(N)=O)c1ccccc1C(F)(F)F` [Example 63, 5-{6-[(1,1-dioxidothiomorpholin-4-yl)methyl]-1H-imidazo[4,5-c]pyridin-1-yl}-3-{(1R)-1-[2-(trifluoromethyl)phenyl]ethoxy}thiophene-2-carboxamide], the IC50 was 10 to 100 nM.

`NC(=O)c1sc(-n2cnc3ccncc32)cc1OCc1ccccc1F` [Example 31, 3-[(2-fluorobenzyl)oxy]-5-(3H-imidazo[4,5-c]pyridin-3-yl)thiophene-2-carboxamide]: the IC50 fell in the range of 10 to 100 nM.

Turning to `C[C@@H](Oc1cc(-n2cnc3cnc(CN4CCN(Cc5ccccc5)CC4)cc32)sc1C(N)=O)c1ccccc1C(F)(F)F` [Example 79, 5-{6-[(4-benzylpiperazin-1-yl)methyl]-1H-imidazo[4,5-c]pyridin-1-yl}-3-{(1R)-1-[2-(trifluoromethyl)phenyl]ethoxy}thiophene-2-carboxamide], the IC50 lay in the range of 10 to 100 nM.

Take `C[C@@H](Oc1cc(-n2cnc3cnc(CN4CCN(CCO)CC4)cc32)sc1C(N)=O)c1ccccc1C(F)(F)F` [Example 61, 5-(6-{[4-(2-hydroxyethyl)piperazin-1-yl]methyl}-1H-imidazo[4,5-c]pyridin-1-yl)-3-{(1R)-1-[2-(trifluoromethyl)phenyl]ethoxy}thiophene-2-carboxamide]: the IC50 was under 10 nM.

As to `CN1CCN(Cc2cc3c(cn2)ncn3-c2cc(OCc3ccccc3C(F)(F)F)c(C(N)=O)s2)CC1` [Example 8, 5-{6-[(4-Methylpiperazin-1-yl)methyl]1H-imidazo[4,5-c]pyridin-1-yl}-3-{[2-(trifluoromethyl)benzyl]oxy}thiophene-2-carboxamide], the IC50 is under 10 nM.

For `C[C@@H](Oc1cc(-n2cnc3cnc(CN4CCN(C(=O)C(F)(F)F)CC4)cc32)sc1C(N)=O)c1ccccc1C(F)(F)F` [Example 159, 5-(6-{[4-(trifluoroacetyl)piperazin-1-yl]methyl}-1H-imidazo[4,5-c]pyridin-1-yl)-3-{(1R)-1-[2-(trifluoromethyl)phenyl]ethoxy}thiophene-2-carboxamide], the IC50 lay within 10 to 100 nM.

On to `C[C@@H](Oc1cc(-n2cnc3cnc(CN4CCN(CC(=O)N(C)C)CC4)cc32)sc1C(N)=O)c1ccccc1C(F)(F)F` [Example 87, 5-[6-({4-[2-(dimethylamino)-2-oxoethyl]piperazin-1-yl}methyl)-1H-imidazo[4,5-c]pyridin-1-yl]-3-{(1R)-1-[2-(trifluoromethyl)phenyl]ethoxy}thiophene-2-carboxamide], for which the 50% inhibitory concentration (IC50) was 10 to 100 nM.

As to `NC(=O)c1sc(-n2cnc3cnc(C(=O)NCCN4CCOCC4)cc32)cc1OCc1ccccc1C(F)(F)F` [Example 5, 1-(5-Carbamoyl-4-{[2-(trifluoromethyl)benzyl]oxy}-2-thienyl)-N-(2-morpholin-4-ylethyl)-1H-imidazo[4,5-c]pyridine-6-carboxamide], the IC50 was in the range of 100 to 1000 nM.

With `Cc1ccccc1C(C)Oc1cc(-n2cnc3cnc(CN4CCN(C(C)C)CC4)cc32)sc1C(N)=O` (centres unmarked) [Example 149, 5-{6-[(4-isopropylpiperazin-1-yl)methyl]-1H-imidazo[4,5-c]pyridin-1-yl}-3-[1-(2-methylphenyl)ethoxy]thiophene-2-carboxamide], the IC50 was 10 to 100 nM.

For the compound `CC(Oc1cc(-n2cnc3cc(CNC4CCN(C)CC4)ncc32)sc1C(N)=O)c1ccccc1F` (centres unmarked) [Example 156, 3-[-1-(2-fluorophenyl)ethoxy]-5-(6-{[(1-methylpiperidin-4-yl)amino]methyl}-3H-imidazo[4,5-c]pyridin-3-yl)thiophene-2-carboxamide], the IC50 was 1000 to 10000 nM.

For the compound `CCC(Oc1cc(-n2cnc3cnc(CN4CCN(C5CC5)CC4)cc32)sc1C(N)=O)c1ccccc1Cl` (centres unmarked) [Example 140, 3-{[1-(2-chlorophenyl)propyl]oxy}-5-{6-[(4-cyclopropylpiperazin-1-yl)methyl]-1H-imidazo[4,5-c]pyridin-1-yl}thiophene-2-carboxamide], the IC50 fell in the range of 10 to 100 nM.

With `C[C@@H](Oc1cc(-n2cnc3ccncc32)sc1C(N)=O)c1ccccc1Cl` [Example 32, 3-[(1R)-1-(2-chlorophenyl)ethoxy]-5-(3H-imidazo[4,5-c]pyridin-3-yl)thiophene-2-carboxamide], the IC50 was under 10 nM.

Regarding `COCCN1CCN(Cc2cc3c(cn2)ncn3-c2cc(O[C@H](C)c3ccccc3C(F)(F)F)c(C(N)=O)s2)CC1` [Example 69, 5-(6-{[4-(2-methoxyethyl)piperazin-1-yl]methyl}-1H-imidazo[4,5-c]pyridin-1-yl)-3-{(1R)-1-[2-(trifluoromethyl)phenyl]ethoxy}thiophene-2-carboxamide], the IC50 was under 10 nM.

Regarding `CCC(Oc1cc(-n2cnc3cnc(CN4CCN(CCO)CC4)cc32)sc1C(N)=O)c1ccccc1Cl` (centres unmarked) [Example 138, 3-{[1-(2-chlorophenyl)propyl]oxy}-5-(6-{[4-(2-hydroxyethyl)piperazin-1-yl]methyl}-1H-imidazo[4,5-c]pyridin-1-yl)thiophene-2-carboxamide], the IC50 is 10 to 100 nM.

As for `C[C@@H](Oc1cc(-n2cnc3cnc(CN4CCN(CCN(C)C)CC4)cc32)sc1C(N)=O)c1ccccc1Cl` [Example 132, 3-[(1R)-1-(2-chlorophenyl)ethoxy]-5-[6-({4-[2-(dimethylamino)ethyl]piperazin-1-yl}methyl)-1H-imidazo[4,5-c]pyridin-1-yl]thiophene-2-carboxamide], the IC50 lay within 10 to 100 nM.

As to `NC(=O)c1sc(-n2cnc3ccncc32)cc1OCc1ccc(F)cc1C(F)(F)F` [Example 41, 3-{[4-fluoro-2-(trifluoromethyl)benzyl]oxy}-5-(3H-imidazo[4,5-c]pyridin-3-yl)thiophene-2-carboxamide], the IC50 is 10 to 100 nM.

Turning to `NC(=O)c1sc(-n2cnc3ccncc32)cc1OCc1ccccc1OC(F)(F)F` [Example 29, 5-(3H-imidazo[4,5-c]pyridin-3-yl)-3-{[2-(trifluoromethoxy)benzyl]oxy}thiophene-2-carboxamide], the IC50 was 10 to 100 nM.

For `CC(Oc1cc(-n2cnc3cnc(CN4CCN(C)CC4)cc32)sc1C(N)=O)c1ccccc1F` (centres unmarked) [Example 103, 3-[1-(2-fluorophenyl)ethoxy]-5-{6-[(4-methylpiperazin-1-yl)methyl]-1H-imidazo[4,5-c]pyridin-1-yl}thiophene-2-carboxamide], the IC50 fell in the range of 10 to 100 nM.
